The AC50 is the midpoint of the concentration-response curve, whichever way the signal moves.

Each structure is given as a SMILES string.

One test deals with T1, human PAH with the R408W mutation (Homo sapiens, UniProt P00439, R408W).
T1 construct: expressed in transfected cells
T1 sequence (P00439 1-452 R408W): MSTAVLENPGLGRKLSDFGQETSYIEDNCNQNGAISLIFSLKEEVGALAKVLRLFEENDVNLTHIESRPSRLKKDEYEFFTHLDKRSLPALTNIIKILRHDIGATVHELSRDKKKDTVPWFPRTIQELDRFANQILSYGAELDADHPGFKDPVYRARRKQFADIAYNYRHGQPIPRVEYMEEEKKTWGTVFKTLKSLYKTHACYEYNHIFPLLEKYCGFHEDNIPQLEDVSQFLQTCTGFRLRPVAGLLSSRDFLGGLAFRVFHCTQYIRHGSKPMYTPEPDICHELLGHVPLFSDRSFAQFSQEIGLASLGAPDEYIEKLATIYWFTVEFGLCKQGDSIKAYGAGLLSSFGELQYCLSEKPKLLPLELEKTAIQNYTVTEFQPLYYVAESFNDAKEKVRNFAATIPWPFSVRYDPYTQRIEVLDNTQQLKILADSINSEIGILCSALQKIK
Nature of the test: Cell Based Phenylalanine Flux Assay.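 Note: Ten-point dose curve from 2-fold serial dilutions, run in duplicate at 0.5% DMSO final, tracer step used 20 µM sepiapterin and 800 µM labeled phenylalanine.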 On the set-up: scale not given here. The settings on record: A375 cells expressing R408W PAH; 24 hrs with compound, then 20 μM sepiapterin and 800 μM 13C9,15N-Phenylalanine for 4 hours; 13C-Tyrosine in media by LC-MS; average where tested multiple times.
As for `COc1cccn2nc(C3c4nc[nH]c4CCN3C(=O)c3ccnn3C3CC3)cc12` (centres unmarked), the AC50 result is reported as “E, E”.

Take `Cn1cnc(-c2nc(C(F)F)c(C(=O)N3CCc4[nH]cnc4C3c3cc4ccccn4n3)o2)c1` (centres unmarked): the AC50 result was “E, E”. Same read-out and setting: then `Cc1cccn2nc(C3c4nc[nH]c4CCN3C(=O)c3ocnc3C(F)(F)F)cc12` (centres unmarked) [listing 1 of 2 here], with “E, E”; and `Cc1cccn2nc(C3c4nc[nH]c4CCN3C(=O)c3ccnn3C)cc12` (centres unmarked), with “E, E”; and `CC(C)c1cccn2nc(C3c4nc[nH]c4CCN3c3ncccn3)cc12` (centres unmarked), with “E, E”. Consider `Cc1ccn2nc(C3c4nc[nH]c4CCN3C(=O)c3oc(C(C)(C)O)nc3C(F)F)cc2c1` (centres unmarked), for which the AC50 result was “E, E”. For `CC(C)(O)c1nc(C(F)(F)F)c(C(=O)N2CCc3[nH]cnc3C2c2cc3c(Cl)cccn3n2)o1` (centres unmarked), the AC50 result was “E, E”. On the same count and under the same terms, then `Cc1cccn2nc(C3c4nc[nH]c4CCN3C(=O)c3oc(C(C)(C)O)nc3C(F)(F)F)cc12` (centres unmarked), with “E, E”; and `FC(F)c1cccn2nc(C3c4nc[nH]c4CCN3c3nnc(-c4ccncn4)o3)cc12` (centres unmarked), with “E, E”; and `O=C(c1ocnc1C(F)(F)F)N1CCc2[nH]cnc2C1c1cc2c(Cl)cccn2n1` (centres unmarked), with “E. E”. `COc1cccn2nc(C3c4nc[nH]c4CCN3C(=O)c3ccnn3C)cc12` (centres unmarked): the AC50 entry is “E, E”.

As for `COc1cccn2nc(C3c4nc[nH]c4CCN3C(=O)c3ncnn3C)cc12` (centres unmarked), the AC50 entry was “E, E”. The same measure, in the same setting: then `COc1cccn2nc(C3c4nc[nH]c4CCN3C(=O)c3ccnn3C(C)C)cc12` (centres unmarked), with “E, E”. On the same count and under the same terms, under `COc1cccn2nc(C3c4nc[nH]c4CCN3C(=O)c3ccnn3C(F)(F)F)cc12` (centres unmarked) stands “E, E”. On the same count and under the same terms, under `Cc1cccn2nc(C3c4nc[nH]c4CCN3C(=O)c3ccnn3C(C)C)cc12` (centres unmarked) stands “E, E”; under `Cc1cccn2nc(C3c4nc[nH]c4CCN3C(=O)c3ccnn3C(F)(F)F)cc12` (centres unmarked), “E, E”; under `Cc1cccn2nc(C3c4nc[nH]c4CCN3C(=O)c3ocnc3C(F)(F)F)cc12` (centres unmarked) [listing 2 of 2 here], “E, E”.

In the case of `FC(F)c1cccn2nc([C@H]3c4nc[nH]c4CCN3c3nnc(-c4ccncn4)o3)cc12` (single isomer, unassigned), the AC50 result is “E, E”.

Turning to `Cc1cccn2nc(C3c4nc[nH]c4CCN3C(=O)c3ccnn3C(F)(F)F)cc12` (single isomer, unassigned), the AC50 entry was “E, E”. Same read-out and setting: under `COc1cccn2nc([C@@H]3c4nc[nH]c4CCN3C(=O)c3ccnn3C3CC3)cc12` (single isomer, unassigned) stands “E, E”.

As for `Cn1cnc(-c2nc(C(F)F)c(C(=O)N3CCc4[nH]cnc4[C@H]3c3cc4ccccn4n3)o2)c1` (single isomer, unassigned), the AC50 result is “E, E”.

The same test, now with this note: A375 cells expressing R408W PAH; 24 hrs with compound, then 20 μM sepiapterin and 800 μM 13C9,15N-Phenylalanine for 4 hours; 13C-Tyrosine in media by LC-MS; average where tested multiple times; read-out: AC50.
As to `COc1cccn2nc(C3c4nc[nH]c4CCN3C(=O)c3cc(C(C)(C)C)nn3C)cc12` (centres unmarked), the AC50 is more than 5 µM.

On to `N#Cc1ncoc1C(=O)N1CCc2[nH]cnc2C1c1nn2ccccc2c1Br` (centres unmarked), for which the AC50 lay in the range of 1 to 5 µM. The same measure, in the same setting: then `Fc1ccc(-c2nnc(N3CCc4[nH]cnc4C3c3cc4ccccn4n3)o2)nc1` (centres unmarked), with more than 5 µM; and `Cn1cc(N2CCc3[nH]cnc3C2c2cc3ccccn3n2)cn1` (centres unmarked), with more than 5 µM. On to `CC1(c2nnc(N3CCc4[nH]cnc4C3c3cc4ccccn4n3)o2)CC1` (centres unmarked), for which the AC50 lay within 1 to 5 µM. Take `O=C(c1nnc(-c2cc[nH]n2)o1)N1CCc2[nH]cnc2C1c1cc2ccccn2n1` (centres unmarked): the AC50 fell in the range of 1 to 5 µM.

Regarding `CC(C)(F)c1nnc(C(=O)N2CCc3[nH]cnc3C2c2cc3cc(C(F)(F)F)ccn3n2)o1` (centres unmarked), the AC50 lay within 1 to 5 µM. As for `O=C(c1nnc(C2CC(F)(F)C2)o1)N1CCc2[nH]cnc2C1c1cc2cccc(F)n2n1` (centres unmarked), the AC50 was 1 to 5 µM. The same measure, in the same setting: under `O=C(c1nnc(-c2cn[nH]c2)o1)N1CCc2[nH]cnc2C1c1cc2c(F)cccn2n1` (centres unmarked) stands 1 to 5 µM. Still for that read-out and setting: then `Cc1nnc(C(=O)N2CCc3[nH]cnc3C2c2cc3ccc(F)cn3n2)o1` (centres unmarked), with 1 to 5 µM; and `Cc1nnc(C(=O)N2CCc3[nH]cnc3C2c2cc3cccc(C(F)F)n3n2)o1` (centres unmarked), with 1 to 5 µM. Still for that read-out and setting: under `Nc1cnc(N2CCc3[nH]cnc3C2c2cc3cccc(C(F)F)n3n2)nc1` (centres unmarked) stands more than 5 µM.

Take `Cn1cnc(-c2nnc(C(=O)N3CCc4[nH]cnc4C3c3cc4cccc(C(F)F)n4n3)o2)c1` (centres unmarked): the AC50 was 1 to 5 µM. Same read-out and setting: under `O=C(c1nnc(-c2ncccn2)o1)N1CCc2[nH]cnc2C1c1cc2c(C3CC3)cccn2n1` (centres unmarked) stands more than 5 µM. Still for that read-out and setting: then `COc1cccn2nc(C3c4nc[nH]c4CCN3C(=O)c3nnc(C(C)(C)O)o3)cc12` (centres unmarked), with more than 5 µM; and `COCc1ncc(C(=O)N2CCc3[nH]cnc3C2c2cc3ccccn3n2)o1` (centres unmarked), with 1 to 5 µM; and `c1ccn2nc(C3c4nc[nH]c4CCN3c3nnc(C4CC4)o3)cc2c1` (centres unmarked), with 1 to 5 µM. Still for that read-out and setting: then `COCc1ccc2c(C(=O)N3CCc4[nH]cnc4C3c3cc4cccc(F)n4n3)cnn2c1` (centres unmarked), with 1 to 5 µM; and `Cc1ccn2nc(C3c4nc[nH]c4CCN3C(=O)c3nnc(-c4cnn(C)c4)o3)cc2c1` (single isomer, unassigned), with more than 5 µM. Regarding `Cn1cncc1-c1nnc(C(=O)N2CCc3[nH]cnc3[C@@H]2c2cc3cccc(C(F)F)n3n2)o1` (single isomer, unassigned), the AC50 was more than 5 µM.

For `Fc1cccc2cc([C@H]3c4nc[nH]c4CCN3c3ncccn3)nn12` (single isomer, unassigned), the AC50 is more than 5 µM. On the same count and under the same terms, under `Cc1nnc(C(=O)N2CCc3[nH]cnc3[C@@H]2c2cc3cccc(C)n3n2)o1` (single isomer, unassigned) stands more than 5 µM; under `Cn1nc(C(C)(C)C)cc1C(=O)N1CCc2[nH]cnc2[C@@H]1c1cc2c(F)cccn2n1` (single isomer, unassigned), more than 5 µM; under `O=C(Cc1cnn2ccccc12)N1CCc2[nH]cnc2[C@H]1c1cc2ccccn2n1` (single isomer, unassigned), 1 to 5 µM.

For `Cn1cncc1-c1nnc(C(=O)N2CCc3[nH]cnc3[C@H]2c2cc3cccc(C(F)(F)F)n3n2)o1` (single isomer, unassigned), the AC50 was 1 to 5 µM. On the same count and under the same terms, under `Cn1ccc(-c2nnc(C(=O)N3CCc4[nH]cnc4[C@H]3c3cc4cc(C(F)(F)F)ccn4n3)o2)n1` (single isomer, unassigned) stands 1 to 5 µM; under `Cc1cccn2nc([C@@H]3c4nc[nH]c4CCN3c3nnc(-c4cnn(C)c4)o3)cc12` (single isomer, unassigned), 1 to 5 µM.

Take `O=C(c1nnc(C2CC(F)(F)C2)o1)N1CCc2[nH]cnc2[C@H]1c1cc2cccc(C(F)F)n2n1` (single isomer, unassigned): the AC50 was 1 to 5 µM. In the case of `Cc1nnc(C(=O)N2CCc3[nH]cnc3[C@H]2c2cc3c(OC(F)F)cccn3n2)o1` (single isomer, unassigned), the AC50 was in the range of 1 to 5 µM. The same measure, in the same setting: under `COc1cccn2nc([C@@H]3c4nc[nH]c4CCN3C(=O)c3nnc(-c4cnn(C(F)(F)F)c4)o3)cc12` (single isomer, unassigned) stands 1 to 5 µM; under `Fc1cccc2cc([C@@H]3c4nc[nH]c4CCN3c3ncccn3)nn12` (single isomer, unassigned), 1 to 5 µM; under `Cc1cccc2cc([C@@H]3c4nc[nH]c4CCN3C(=O)c3nnc(C(C)(C)O)o3)nn12` (single isomer, unassigned), 1 to 5 µM.

On to `Cc1c([C@@H]2c3nc[nH]c3CCN2C(=O)c2nnc(C(C)(C)O)o2)nn2ccccc12` (single isomer, unassigned), for which the AC50 is more than 5 µM. Same read-out and setting: then `O=C(c1nnc(-c2ncccn2)o1)N1CCc2[nH]cnc2[C@H]1c1cc2c(OC(F)F)cccn2n1` (single isomer, unassigned), with 1 to 5 µM; and `CC(C)(O)c1noc(C(=O)N2CCc3[nH]cnc3[C@H]2c2cc3ccccn3n2)n1` (single isomer, unassigned), with more than 5 µM; and `FC(F)(F)c1cccc2cc([C@@H]3c4nc[nH]c4CCN3c3nnc(C4CC4)o3)nn12` (single isomer, unassigned), with 1 to 5 µM. Still for that read-out and setting: then `Cc1nnc(C(=O)N2CCc3[nH]cnc3C2c2nn3ccccc3c2C)o1` (single isomer, unassigned), with 1 to 5 µM; and `Cn1nc(C(F)F)nc1C(=O)N1CCc2[nH]cnc2[C@H]1c1cc2ccc(F)cn2n1` (single isomer, unassigned), with 1 to 5 µM. Consider `Cn1nc(C2CC2)nc1C(=O)N1CCc2[nH]cnc2C1c1cc2c(F)cccn2n1` (single isomer, unassigned), for which the AC50 was in the range of 1 to 5 µM. The same measure, in the same setting: then `O=C(c1nnc(N2CCOCC2)o1)N1CCc2[nH]cnc2[C@H]1c1cc2ccccn2n1` (single isomer, unassigned), with 1 to 5 µM. Still for that read-out and setting: under `COCc1ccc2c(C(=O)N3CCc4[nH]cnc4[C@H]3c3cc4ccccn4n3)cnn2c1` (single isomer, unassigned) stands 1 to 5 µM; under `Cc1cccn2nc([C@@H]3c4nc[nH]c4CCN3c3nnc(C(=O)N(C)C)o3)cc12` (single isomer, unassigned), 1 to 5 µM; under `CN(C)c1nnc(C(=O)N2CCc3[nH]cnc3[C@H]2c2cc3ccccn3n2)o1` (single isomer, unassigned), 1 to 5 µM. On the same count and under the same terms, under `Cc1nc([C@@H](C)O)oc1C(=O)N1CCc2[nH]cnc2[C@H]1c1cc2cccc(C)n2n1` (single isomer, unassigned) stands 1 to 5 µM.

The values above are taken from patent publication US12673961B2 (Agios Pharmaceuticals, Inc., priority 2022, dated 2026).
